One experiment relates to T1, protein kinase C (PKC).
T1 construct: this enzyme activity was enriched, starting from a chicken gizzard extract; from tissue; host or cells: chicken gizzard
The experiment is described as follows: Inhibition of PS/DO-mediated protein kinase C activity (32P incorporation into histone H-1). The conditions noted are these: activity with PKC activators and without test substance = 100%; for inhibition at 100 µM: test substance 10^-4 mol/l; for inhibition at 10 µM: test substance 10^-5 mol/l; for inhibition at 1 µM: test substance 10^-6 mol/l. In kind it is biochemical, chicken. The text has this:
1. Inhibition of the enzyme protein kinase C. For the elucidation of the inhibiting influence of the compounds according to the present invention of general formula (I) on the calcium- and phospholipid-dependent protein kinase (PKC), this enzyme activity was enriched, starting from a chicken gizzard extract. The two-step procedure according to purification steps described in the literature (J. Biol. Chem., 260, 15718-15722/1985) utilized the property of the enzyme of binding in the presence of calcium to cell membranes and again dissolving off by calcium chelators (EGTA). In the first purification step, there took place the binding of the PKC to membranes of the chicken gizzard extract and, in the second step, to the so-called inside out vesicles of erythrocytes. After dissolving from the erythrocyte membranes and rebuffering, the PKC preparation was present in 10 mM HEPES, 1 mM DTT and 0.1% PEG 20,000 (pH 7.5) and, under these conditions, it could be stored for several months at -70° C. without loss of activity. The activity of the enzyme was determined via the incorporation of phosphorus 32-labelled phosphate into the protein histon H-1, which is phosphorylatable by PKC. The test thereby contained the following components: 50 mM HEPES (pH 7.5), 1 mM DTT, 5 mM magnesium chloride, about 10 μM free calcium ions, 200 μg/ml histone, 5 μg/ml phosphatidylserine, 1 μg/ml 1,2-diolein, 10 μuM ATP, in each case an appropriate amount of PKC preparation and optionally a test substance. The kinase activity measured under standard conditions in the presence of PKC activators (and without test substance) was, in each case, taken as being 100% and the inhibitory action of the compounds of general formula (I) referred thereto as a percentage.

Experiment [1] deals with gel-filtered human thrombocytes. Put plainly: Inhibition of OAG-induced platelet aggregation (aggregometer). In kind it is cell-based. Conditions: 3 min preincubation, OAG 5×10^-5 M, human platelets; for inhibition at 100 µM: test substance 10^-4 mol/l; for inhibition at 10 µM: test substance 10^-5 mol/l; for inhibition at 1 µM: test substance 10^-6 mol/l. How it is done: 2. Influence of the compound of Example 1 on platelet aggregation stimulated by oleoylacetylglycerol.
For carrying out the aggregation experiments, use was made of gel-filtered human thrombocytes. These were prepared in the following way: after centrifuging human blood for 15 minutes at 60 xg, the supernatant, i.e., the platelet-rich plasma, was used for the gel filtration. By means of the gel filtration through a column packed with Sepharose CL-2B, the platelets were transferred into a calcium-free, defined buffer medium (15 mM tris, 150 mM sodium chloride, 5.5 mM glucose, 0.2% bovine serum albumin; pH 7.4). Subsequently, the platelets were recalcified to a concentration of 7×10^-4 M calcium. The platelets were then incubated at 37° C. in an aggregometer and, after initiation of the aggregation by a stimulus, the decrease of the absorption was determined as a measure of the aggregation. As aggregation-initiating stimulus, there was used 1-oleoyl-2-acetylglycerol (OAG), an activator of the enzyme protein kinase C (J. Biol. Chem., 258, 6701-6704/1983) in a concentration of 5×10^-5 M. The aggregation achieved under these conditions was taken as being 100% control. The carrying out of the experiments on the influence of the compound of Example 1 on the OAG-stimulated aggregation took place in the following way: the platelets were first incubated for 3 minutes with the compound of Example 1 at the given concentration and subsequently the aggregation was initiated with OAG. The reduced extent of the aggregation was, in each case, calculated as a percentage of the 100% control. The results obtained are set out in Table 1 as well.

Where a name gives a salt, the structure may show the parent alone.

Consider 13 compounds from patent US4855489A, “2-acyloxypropylamino derivatives, processes for the preparation thereof, and pharmaceutical compositions containing them” (Goedecke Aktiengesellschaft, priority 1986, dated 1989).

As for `CCCCCCCCCCCCCCCCCCOCC(CN(C)C)OC(C)=O` (racemic) [Example 1, (±)-3-Dimethylamino-1-octadecyloxy-2-propyl acetate hydrochloride], in the experiment on protein kinase C (PKC), at 100 µM the inhibition was 86%; the inhibition (commonly the drop in the measured response relative to a control, in per cent) at 10 µM worked out at 61%; 1 µM produced 24% inhibition. For the same compound, in experiment [1], 100 µM produced 100% inhibition, 10 µM produced 48% inhibition and the inhibition at 1 µM turned out to be 2%.

Take `CCCCCCCCCCCCCCCCCCOCC(CN1CCCCC1)OC(C)=O` (racemic) [Example 1.a, (±)-1-octadecyloxy-3-piperidino-2-propyl acetate hydrochloride]: the results for the inhibition at 100 µM (with protein kinase C (PKC); in experiment [1]) were 25% and 54%, respectively.

`CCCCCCCCCCCCCCCCCCOCC(CN(Cc1ccccc1)Cc1ccccc1)OC(C)=O` (racemic) [Example 1.b, (±)-3-dibenzylamino-1-octadecyloxy-2-propyl acetate hydrochloride] registered an inhibition at 10 µM with protein kinase C (PKC) of 22%.

As to `CCCOCC(CN(C)C)OC(=O)CC` (racemic) [Example 1.c, (±)-3-dimethylamino-1-propoxy-2-propyl propionate oxalate], the inhibition at 100 µM in the experiment on protein kinase C (PKC) was 9%.

In the experiment on protein kinase C (PKC), `CCCCCCCCCCCCCCOCC(CN(C)C)OC(C)=O` (racemic) [Example 1.e, (±)-3-dimethylamino-1-tetradecyloxy-2-propyl acetate hydrochloride] registered an inhibition at 10 µM of 14%.

Consider `CCCCCCCCCCCCCCCCOCC(CN(C)C)OC(C)=O` (racemic) [Example 1.f, (±)-3-dimethylamino-1-hexadecyloxy-2-propyl acetate hydrochloride], for which the inhibition at 10 µM with protein kinase C (PKC) was 27%.

On to `CCCCCCCCCCCCCCCCCCCCOCC(CN(C)C)OC(C)=O` (racemic) [Example 1.g, (±)-3-dimethylamino-1-eicosanyloxy-2-propyl acetate hydrochloride], for which the inhibition at 10 µM amounted to 39% with protein kinase C (PKC) and 53% in experiment [1].

On to `CCCCCCCCCCCCCCC(C)OCC(CN(C)C)OC(C)=O` (racemic) [Example 1.l, (±)-3-dimethylamino-1-(2-hexadecyloxy)-2-propyl acetate hydrochloride], for which 10 µM produced 31% inhibition in the experiment on protein kinase C (PKC).

In the case of `CCCCCCCC/C=C\CCCCCCCCOCC(CN(C)C)OC(C)=O` (racemic) [Example 1.m, (±)-3-dimethylamino-1-(9-cis-octadecenyloxy)-2-propyl acetate hydrochloride], in the experiment with protein kinase C (PKC), the inhibition at 10 µM stood at 48% and the inhibition at 1 µM worked out at 14%.

In the experiment on protein kinase C (PKC), `CCCCCCCCCCCCCCCCCCOCC(CN)OC(C)=O` (racemic) [Example 2, (±)-3-Amino-1-octadecyloxy-2-propyl acetate hydrochloride] returned an inhibition at 100 µM of 44% and an inhibition at 10 µM of 18%.

Regarding `CCCCCCCCCCCCCCCCCCOCC(CNC)OC(C)=O` (racemic) [Example 2.a, (±)-3-methylamino-1-octadecyloxy-2-propyl acetate hydrochloride], in the experiment on protein kinase C (PKC), the inhibition at 10 µM is 35% and the inhibition at 1 µM was 13%.

On to `CCCCCCCCCCCCCCCCCCSCC(CN(C)C)OC(C)=O` (racemic) [Example 3, (±)-3-Dimethylamino-1-octadecylthio-2-propyl acetate hydrochloride], for which, in the experiment on protein kinase C (PKC), the inhibition at 100 µM was 70% and the inhibition at 10 µM was 22%.

On to `CCCCCCCCCCCCCCCCCCOCC(CN1CCNCC1C)OC(C)=O` (stereo not shown) [Example 1.d, 1-(2-methyl)-piperazinyl-3-octadecyloxy-2-propyl acetate oxalate], for which the inhibition at 10 µM was 61% with protein kinase C (PKC) and 100% in experiment [1]. For the same compound, the inhibition at 1 µM with protein kinase C (PKC) was determined as 18%; in experiment [1], 0%. In addition, 3 µM produced 14% inhibition in experiment [1] (test substance 3 × 10^-6 mol/l).
